Data: ChEMBL document CHEMBL3046347, “Synthesis and biological evaluation of novel curcumin analogues as anti-inflammatory, anti-cancer and anti-oxidant agents” (Med Chem Res, 2012)

Columns and labels:
HCT-116 [1] = test: Cytotoxicity against Homo sapiens (human) HCT116 cells at 700 nM after 48 hr by propidium iodide-based fluorometric assay; type: functional; conditions: HCT-116, 48 h, read-out: GI
ACHN [2] = test: Cytotoxicity against Homo sapiens (human) ACHN cells at 700 nM after 48 hr by propidium iodide-based fluorometric assay; type: functional; conditions: read-out: GI
[3] = Cytotoxicity against Homo sapiens (human) H460 cells at 700 nM after 48 hr by propidium iodide-based fluorometric assay; type: functional; conditions: NCI-H460, 48 h, read-out: GI
Calu-1 [4] = test: Cytotoxicity against Homo sapiens (human) Calu1 cells at 700 nM after 48 hr by propidium iodide-based fluorometric assay; type: functional; conditions: Calu-1, 48 h, read-out: GI
PANC-1 [5] = test: Cytotoxicity against Homo sapiens (human) PANC1 cells at 700 nM after 48 hr by propidium iodide-based fluorometric assay; type: functional; conditions: PANC-1, 48 h, read-out: GI
[6] = Antioxidant activity assessed as hydroxyl radical scavenging activity at 1 uM by spectrophotometric analysis; type: functional
[7] = biological target: T1, Prostaglandin G/H synthase 1 (Ovis aries) (UniProt P05979); conditions: at 1 µM;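 also: colorimetric read-out, measured after 5 min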
T1 sequence (whole entry): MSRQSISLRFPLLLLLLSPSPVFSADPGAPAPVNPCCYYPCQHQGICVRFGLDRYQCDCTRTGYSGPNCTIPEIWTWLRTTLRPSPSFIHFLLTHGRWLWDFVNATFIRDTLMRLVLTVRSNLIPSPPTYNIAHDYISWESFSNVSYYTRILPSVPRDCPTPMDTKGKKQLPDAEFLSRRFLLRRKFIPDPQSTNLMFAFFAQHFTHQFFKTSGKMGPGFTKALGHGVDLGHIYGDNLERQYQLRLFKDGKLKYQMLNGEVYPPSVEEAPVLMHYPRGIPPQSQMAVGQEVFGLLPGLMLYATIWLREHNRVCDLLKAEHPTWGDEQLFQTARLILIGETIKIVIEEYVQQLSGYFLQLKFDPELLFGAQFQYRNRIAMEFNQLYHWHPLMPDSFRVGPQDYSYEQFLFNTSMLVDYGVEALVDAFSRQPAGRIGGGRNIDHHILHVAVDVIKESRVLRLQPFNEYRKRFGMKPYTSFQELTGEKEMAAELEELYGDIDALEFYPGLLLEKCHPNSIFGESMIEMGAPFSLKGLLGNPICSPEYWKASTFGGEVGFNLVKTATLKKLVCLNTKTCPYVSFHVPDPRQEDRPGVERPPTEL
Description: Inhibition of Ovis aries (sheep) COX1 at 1 uM after 5 min by colorimetric analysis

[8] = biological target: T2, Beta-glucuronidase (Homo sapiens) (UniProt P08236); test: Inhibition of beta-glucuronidase (unknown origin) using p-nitrophenyl-beta-D-glucopyranosiduronic acid as substrate at 1 uM after 30 min by spectrophotometric analysis
T2 sequence (whole entry): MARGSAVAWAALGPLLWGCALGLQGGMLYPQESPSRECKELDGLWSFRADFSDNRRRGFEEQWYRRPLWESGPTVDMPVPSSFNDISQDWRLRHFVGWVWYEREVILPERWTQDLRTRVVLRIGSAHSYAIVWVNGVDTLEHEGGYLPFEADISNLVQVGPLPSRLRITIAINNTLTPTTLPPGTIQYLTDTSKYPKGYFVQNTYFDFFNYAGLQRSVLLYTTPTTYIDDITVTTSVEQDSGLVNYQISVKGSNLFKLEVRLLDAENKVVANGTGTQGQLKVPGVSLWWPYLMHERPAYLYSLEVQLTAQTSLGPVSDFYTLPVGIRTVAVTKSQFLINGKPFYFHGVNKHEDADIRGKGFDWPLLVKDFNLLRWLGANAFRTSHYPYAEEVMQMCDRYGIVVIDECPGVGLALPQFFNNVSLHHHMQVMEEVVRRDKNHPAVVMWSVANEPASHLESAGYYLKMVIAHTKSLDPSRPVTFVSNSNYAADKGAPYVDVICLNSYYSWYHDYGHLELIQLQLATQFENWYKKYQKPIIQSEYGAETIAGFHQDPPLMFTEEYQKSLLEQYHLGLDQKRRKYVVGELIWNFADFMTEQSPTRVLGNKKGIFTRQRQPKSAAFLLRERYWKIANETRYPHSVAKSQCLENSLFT

[9] = Cytotoxicity against Homo sapiens (human) H460 cells at 10 uM after 48 hr by propidium iodide-based fluorometric assay; type: functional; conditions: NCI-H460, 48 h, read-out: GI
ACHN [10] = test: Cytotoxicity against Homo sapiens (human) ACHN cells at 10 uM after 48 hr by propidium iodide-based fluorometric assay; type: functional; conditions: read-out: GI
[11] = tested on: Radical scavenging activity; test: Antioxidant activity assessed as DPPH radical scavenging activity at 1 uM after 20 min by spectrophotometric analysis; type: functional
[12] = biological target: T3, Prostaglandin G/H synthase 2 (Ovis aries) (UniProt P79208); test: Inhibition of Ovis aries (sheep) COX2 at 1 uM after 5 min by colorimetric analysis
T3 sequence (whole entry): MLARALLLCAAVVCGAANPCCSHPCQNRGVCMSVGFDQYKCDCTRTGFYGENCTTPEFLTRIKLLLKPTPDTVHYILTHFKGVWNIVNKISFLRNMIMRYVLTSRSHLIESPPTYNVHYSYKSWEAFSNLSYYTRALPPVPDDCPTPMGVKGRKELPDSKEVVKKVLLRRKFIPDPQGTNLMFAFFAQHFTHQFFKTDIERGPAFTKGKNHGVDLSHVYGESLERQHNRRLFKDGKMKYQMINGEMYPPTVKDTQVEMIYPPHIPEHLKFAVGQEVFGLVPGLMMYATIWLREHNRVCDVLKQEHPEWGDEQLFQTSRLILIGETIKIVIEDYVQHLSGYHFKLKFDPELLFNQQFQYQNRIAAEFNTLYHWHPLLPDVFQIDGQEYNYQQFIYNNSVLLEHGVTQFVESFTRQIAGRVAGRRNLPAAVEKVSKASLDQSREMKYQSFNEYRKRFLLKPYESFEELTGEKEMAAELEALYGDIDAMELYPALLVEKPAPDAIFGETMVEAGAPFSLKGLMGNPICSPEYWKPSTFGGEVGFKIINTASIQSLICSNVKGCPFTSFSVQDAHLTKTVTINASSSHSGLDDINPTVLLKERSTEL

THP-1 [13] = test: Anti-inflammatory activity in Homo sapiens (human) THP1 cells assessed as inhibition of LPS-induced TNFalpha production at 10 uM incubated for 30 min prior to LPS-challenge measured after 24 hr by ELISA; type: functional
HCT-116 [14] = test: Cytotoxicity against Homo sapiens (human) HCT116 cells at 10 uM after 48 hr by propidium iodide-based fluorometric assay; type: functional; conditions: HCT-116, 48 h, read-out: GI
[15] = Antioxidant activity assessed as reduction of potassium ferricynide at 1 uM after 10 min by spectrophotometric analysis; type: functional; design: scale not given: the % may be the effect or the level left
THP-1 [16] = test: Anti-inflammatory activity in Homo sapiens (human) THP1 cells assessed as inhibition of LPS-induced IL6 production at 10 uM incubated for 30 min prior to LPS-challenge measured after 24 hr by ELISA; type: functional
PANC-1 [17] = test: Cytotoxicity against Homo sapiens (human) PANC1 cells at 10 uM after 48 hr by propidium iodide-based fluorometric assay; type: functional; conditions: PANC-1, 48 h, read-out: GI
Calu-1 [18] = test: Cytotoxicity against Homo sapiens (human) Calu1 cells at 10 uM after 48 hr by propidium iodide-based fluorometric assay; type: functional; conditions: Calu-1, 48 h, read-out: GI
Trypsin (Homo sapiens) = Trypsin (Homo sapiens) (UniProt P07477+P07478+P35030); test: Inhibition of trypsin (unknown origin) using bovine serum albumin as substrate at 1 uM incubated for 20 min prior to substrate addition measured after 25 min by Lowry method; type: protein assay
[19] = Cytotoxicity against Homo sapiens (human) […] cells at 10 uM; type: cell-based
ACHN [20] = test: Cytotoxicity against Homo sapiens (human) ACHN cells at 500 nM after 48 hr by propidium iodide-based fluorometric assay; type: functional; conditions: read-out: GI
HCT-116 [21] = test: Cytotoxicity against Homo sapiens (human) HCT116 cells at 500 nM after 48 hr by propidium iodide-based fluorometric assay; type: functional; conditions: HCT-116, 48 h, read-out: GI
[22] = Cytotoxicity against Homo sapiens (human) H460 cells at 500 nM after 48 hr by propidium iodide-based fluorometric assay; type: functional; conditions: NCI-H460, 48 h, read-out: GI
Calu-1 [23] = test: Cytotoxicity against Homo sapiens (human) Calu1 cells at 500 nM after 48 hr by propidium iodide-based fluorometric assay; type: functional; conditions: Calu-1, 48 h, read-out: GI
PANC-1 [24] = test: Cytotoxicity against Homo sapiens (human) PANC1 cells at 500 nM after 48 hr by propidium iodide-based fluorometric assay; type: functional; conditions: PANC-1, 48 h, read-out: GI
THP-1 [25] = test: Anti-inflammatory activity in Homo sapiens (human) THP1 cells assessed as inhibition of LPS-induced TNFalpha production at 1 uM incubated for 30 min prior to LPS-challenge measured after 24 hr by ELISA; type: functional
[26] = Cytotoxicity against Homo sapiens (human) […] cells at 1 uM; type: cell-based
THP-1 [27] = test: Anti-inflammatory activity in Homo sapiens (human) THP1 cells assessed as inhibition of LPS-induced IL6 production at 1 uM incubated for 30 min prior to LPS-challenge measured after 24 hr by ELISA; type: functional
[28] = Antioxidant activity assessed as hydroxyl radical scavenging activity at 1 mM by spectrophotometric analysis; type: functional
[29] = Antioxidant activity assessed as reduction of potassium ferricynide at 1 mM after 10 min by spectrophotometric analysis; type: functional; design: scale not given: the % may be the effect or the level left

Row | SMILES | inhibition [7] [%] | inhibition [8] [%] | inhibition [12] [%] | inhibition (Trypsin (Homo sapiens)) [%] | Activity [6] [%] | inhibition of growth at 10 µM [9] [%] | inhibition of growth at 10 µM (ACHN [10]) [%] | Activity [11] [%] | inhibition at 10 µM (THP-1 [13]) [%] | inhibition of growth at 10 µM (HCT-116 [14]) [%] | Activity [15] [%] | inhibition at 10 µM (THP-1 [16]) [%] | inhibition of growth at 10 µM (PANC-1 [17]) [%] | inhibition of growth at 10 µM (Calu-1 [18]) [%] | Activity [19] [%] | further results
1 | CN1CC[C@H](c2c(O)cc(O)c3c(=O)cc(-c4ccccc4Cl)oc23)[C@H](O)C1 [ALVOCIDIB] |  |  |  |  |  |  |  |  |  |  |  |  |  |  |  | inhibition of growth at 0.7 µM (HCT-116 [1]): 83%; inhibition of growth at 0.7 µM (ACHN [2]): 73%; inhibition of growth at 0.7 µM [3]: 73%; inhibition of growth at 0.7 µM (Calu-1 [4]): 82%; inhibition of growth at 0.7 µM (PANC-1 [5]): 68%
2 | COc1cc(OC)c(/C=C/C(=O)c2cccc(NC(=O)c3cccs3)c2)c(OC)c1Br | 27.8 | 44.7 | 55.4 | 41.4 | 49.3 | 72 | 82 | 35.3 | 80 | 98 | 32.7 | 96 | 89 | 85 | 53 | 
3 | COc1cc(OC)c(/C=C/C(=O)c2cccc(NC(=O)c3ccccc3F)c2)c(OC)c1Br | 44.8 | 74.2 | 79.3 | 64.8 | 43.2 | 52 | 66 | 42.9 | 84 | 66 | 40.5 | 96 | 68 | 67 | 56 | 
4 | Nc1ccn([C@@H]2O[C@H](CO)[C@@H](O)C2(F)F)c(=O)n1 [GEMCITABINE] |  |  |  |  |  |  |  |  |  |  |  |  |  |  |  | inhibition of growth at 0.5 µM (ACHN [20]): 84%; inhibition of growth at 0.5 µM (HCT-116 [21]): 86%; inhibition of growth at 0.5 µM [22]: 79%; inhibition of growth at 0.5 µM (Calu-1 [23]): 87%; inhibition of growth at 0.5 µM (PANC-1 [24]): 78%
5 | C[C@@H]1C[C@H]2[C@@H]3CCC4=CC(=O)C=C[C@]4(C)[C@@]3(F)[C@@H](O)C[C@]2(C)[C@@]1(O)C(=O)CO [DEXAMETHASONE] |  |  |  |  |  |  |  |  |  |  |  |  |  |  |  | inhibition at 1 µM (THP-1 [25]): 72%; Activity [26]: 0%; inhibition at 1 µM (THP-1 [27]): 94%
6 | O=C1O[C@H]([C@@H](O)CO)C(O)=C1O |  |  |  |  |  |  |  |  |  |  |  |  |  |  |  | Activity [28]: 45.9%; Activity [29]: 78.9%

Second part, led by results:

Row | inhibition [7] [%] | inhibition [8] [%] | inhibition [12] [%] | inhibition (Trypsin (Homo sapiens)) [%] | SMILES | Activity [6] [%] | inhibition of growth at 10 µM [9] [%] | inhibition of growth at 10 µM (ACHN [10]) [%] | Activity [11] [%] | inhibition at 10 µM (THP-1 [13]) [%] | inhibition of growth at 10 µM (HCT-116 [14]) [%] | Activity [15] [%] | inhibition at 10 µM (THP-1 [16]) [%] | inhibition of growth at 10 µM (PANC-1 [17]) [%] | inhibition of growth at 10 µM (Calu-1 [18]) [%] | Activity [19] [%] | further results
7 | 19.6 | 34 | 38 | 39.6 | COc1ccc(C(=O)Nc2cccc(C(=O)/C=C/c3c(OC)cc(OC)c(Br)c3OC)c2)cc1 | 21.2 | 98 | 97 | 36.3 | 63 | 98 | 26.9 | 94 | 99 | 99 | 65 | 
8 | 64.6 | 82.5 | 85.8 | 69.6 | COc1cc(OC)c(/C=C/C(=O)c2cccc(NC(=O)c3ccc(C(C)(C)C)cc3)c2)c(OC)c1Br | 27.3 | 51 | 35 | 43.6 | 83 | 10 | 36.8 | 96 | 37 | 32 | 56 | 
9 | 58.9 | 79.4 | 83.3 | 72.9 | COc1cc(OC)c(/C=C/C(=O)c2cccc(NC(=O)c3ccc(F)cc3)c2)c(OC)c1Br | 33.4 | 62 | 69 | 44.3 | 85 | 64 | 43.9 | 97 | 66 | 60 | 49 | 
10 | 24.2 | 66.9 | 48.2 | 51.6 | COc1cc(OC)c(/C=C/C(=O)c2cccc(NC(=O)c3cccc(C)c3)c2)c(OC)c1Br | 38.3 | 32 | 28 | 36.7 | 87 | 30 | 29.2 | 97 | 23 | 22 | 56 | 
